Usually IC50 stands for the point on the concentration scale where inhibition reaches its midpoint.

The target of one assay is T1, human trkA receptor (Homo sapiens, UniProt P04629).
T1 construct: expressed in transfected cells
The assay is described as follows: trkA receptor inhibitory activity using a cell expressing a nerve growth factor receptor (NGF-dependent increase of calcium concentration in cells, FLIPR). The format is cell-based. To be noted: HEK293 cells stably expressing human trkA receptor; NGF-stimulated change in Ca concentration in cells. On the procedure:
Experiment to Measure trkA Receptor Inhibitory Activity Using a Cell Expressing a Nerve Growth Factor Receptor (trkA Receptor)
The trkA receptor inhibitory activity was measured by using the increase in a ligand-dependent calcium concentration in cells as an index. HEK293 cells (American Type Culture Collection) that stably expressed a human trkA receptor were dispensed onto a 96-well poly-D-lysine-coated plate (Product Name: Biocoat, PDL96W black/clear, by Nippon Becton Dickinson) to a 2×10^4 cells/well on the day before the experiment, and incubated overnight at 37° C. under 5% carbon dioxide (CO2) in a culture medium containing 10% fetal bovine serum (FBS) (Product Name: DMEM, Invitrogen Corporation). The culture medium was replaced by a loading buffer (a washing solution containing a 1.5 μM fluorescent-labelled indicator (Product Name: Fluo4-AM, Tong Ren Tang Technologies Co. Ltd.): a Hank's balanced salt solution (HBSS), 20 mM 2-[4-(2-hydroxyethyl)-1-piperazinyl]ethanesulfonic acid (HEPES)-sodium hydroxide (NaOH), 2.5 mM Probenecid, and 0.1% bovine serum albumin (BSA)), and left to stand at room temperature for 3 hours, and the cells were washed using a plate washer (Product Name: ELx405, BIO-TEK instrument Corporation) in which a washing solution had been set up. The compound that had been preliminarily dissolved and diluted in a washing solution was added thereto, and set up in a system for measuring a calcium (Ca) concentration in a cell (Product Name: FLIPR, Molecular Devices Corporation). After 5 minutes, a nerve growth factor (NGF, mouse derived 2.5S, Alomone) corresponding to 80% stimulation of a maximum response was added (to a final concentration of about 100 to 150 ng/ml) to measure the change in Ca concentrations in cells. The difference between a maximum value and a minimum value in the change of Ca concentrations in cells was determined, and kept as measurement data. With a response upon addition of NGF being set at 0%, and a response upon addition of a buffer being set at 100%, the concentration causing 50% inhibition was determined as an IC50 value. In the table, Ex represents Example Compound No. as below (the same applies hereinafter). From the results of this test, it was confirmed that the representative compounds of the present invention as below have a trkA receptor inhibitory action.

For assay [1], the system named is enhanced vascular permeability caused by Rat NGF. The assay is described as follows: Inhibitory activity on enhanced vascular permeability caused by Rat NGF (Evans blue). The format is in vivo. To be noted: Wistar female rat, 10 mg/kg oral, NGF intracutaneously 60 minutes after administration; for inhibition in vivo at 10 mg/kg: 1 h, read-out: Inhibitory rate. On the procedure: Evaluation of the Inhibitory Activity of the Compound on Enhanced Vascular Permeability Caused by Rat NGF
The in vivo NGF inhibitory activity of the compound was examined. A Wistar female rat (Japan SLC) was forced to be orally administered with the compound (0.5% methylcellulose solution) 10 mg/3 ml/kg or a solvent (0.5% methylcellulose solution) 3 ml/kg. Under ether anesthesia performed at 60 minutes after administration, physiological saline or 1 μg/ml NGF (NGF, mouse derived 2.5 S, Alomone) was intracutaneously administered to the back at 50 μl/site, and then immediately a 1% Evans blue solution (dissolved in physiological saline) was administered through the caudal vein at 3 ml/kg. At a time point of 10 minutes after administration, the skin on the back was taken, and shaken in formamide for 16 hours. After shaking, an absorbance of Evans blue extracted in formamide was measured by an absorbance meter (wavelength: 620 nm), and the concentration was determined by a calibration curve method. A value obtained by subtracting the concentration of Evans blue at a site administered with physiological saline from the concentration of Evans blue at a site administered with NGF was determined as an NGF-dependent action, and an inhibitory rate of the compound group was determined with a group administered with a solvent being set at 100%. In this test, it was confirmed that the representative compounds as below of the present invention have an excellent inhibitory action on enhanced vascular permeability caused by Rat NGF.

In assay [2] the test system is rat having urinary frequency caused by cyclophosphamide (CPA). The assay is described as follows: Action on a rat having urinary frequency caused by cyclophosphamide (CPA). The format is in vivo. Conditions: CPA-treated Wistar female rat, value before administration = 100%. On the procedure: Action of the Compound on a Rat Having Urinary Frequency Caused by Cyclophosphamide (CPA)
CPA (150 mg/5 ml/kg) was intraperitoneally administered to a Wistar female rat (Charles River Laboratories), and after 2 days, the experiment was carried out. It was forced to be orally administered with distilled water (30 ml/kg), and then confined in a metabolic cage, and urine weight and urination frequency were continuously measured for 1 hour. 3 or 10 mg/5 ml/kg of the compound (0.5% methylcellulose solution), or 5 ml/kg of a solvent (0.5% methylcellulose solution) was orally administered, and after 5 to 30 minutes, urination functions were measured after water-loading in the same manner as described above. A total urine weight was divided by the total urination frequency to determine an effective bladder capacity. With the value before administration of the compound being set at 100%, a rate of change in the effective bladder capacity caused by administration of the compound was determined.
In this test, at 2 days after CPA treatment, the effective bladder capacity had decreased (about 0.5 ml), indicating urinary frequency.

Where [3] appears, read: oral dose 10 mg/kg, evaluation period 5-65 minutes after administration.
The mark [4] stands for this setting: oral dose 10 mg/kg, evaluation period 15-75 minutes after administration.

Where a name gives a salt, the structure may show the parent alone.

T1 sequence (P04629 33-796): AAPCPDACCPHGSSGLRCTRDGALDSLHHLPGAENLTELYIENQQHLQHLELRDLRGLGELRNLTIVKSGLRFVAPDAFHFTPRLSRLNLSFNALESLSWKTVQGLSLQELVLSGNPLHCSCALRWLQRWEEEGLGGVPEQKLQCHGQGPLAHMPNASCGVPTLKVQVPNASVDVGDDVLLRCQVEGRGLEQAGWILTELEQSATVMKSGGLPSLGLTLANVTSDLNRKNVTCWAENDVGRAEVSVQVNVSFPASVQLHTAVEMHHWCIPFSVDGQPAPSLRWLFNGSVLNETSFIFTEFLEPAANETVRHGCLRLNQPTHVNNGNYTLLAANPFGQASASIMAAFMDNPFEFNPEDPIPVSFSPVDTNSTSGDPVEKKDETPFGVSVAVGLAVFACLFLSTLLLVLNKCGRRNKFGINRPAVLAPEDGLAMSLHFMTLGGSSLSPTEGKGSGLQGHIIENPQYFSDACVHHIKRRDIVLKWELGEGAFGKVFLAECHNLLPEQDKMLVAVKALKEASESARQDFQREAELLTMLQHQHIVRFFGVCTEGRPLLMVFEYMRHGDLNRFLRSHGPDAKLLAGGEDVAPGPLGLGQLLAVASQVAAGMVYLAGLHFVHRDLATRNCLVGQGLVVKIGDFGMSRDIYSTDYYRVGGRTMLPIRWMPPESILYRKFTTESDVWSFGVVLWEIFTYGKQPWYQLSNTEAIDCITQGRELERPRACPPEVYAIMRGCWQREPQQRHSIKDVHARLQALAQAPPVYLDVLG

As to `O=C(Nc1ccc(CO)cc1Cl)c1csc(N2CCC(Oc3ncccn3)CC2)n1` [Ex 3], the half-maximal inhibitory concentration (IC50) at human trkA receptor turned out to be 5.4 nM.
As for `O=C(Nc1ccccc1C(=O)Nc1cccnc1)c1coc(N2CCOCC2)n1` [Ex 11], the half-maximal inhibitory concentration (IC50) at human trkA receptor was 6.9 nM. Besides, the inhibition in vivo at 10 mg/kg in assay [1] is 69%.
The like results for `CCOC1CCN(c2nc(C(=O)Nc3ccccc3C(=O)NC3CCOCC3)cs2)CC1` [Ex 28] were, in that order, 27 nM and 92%.
The like results for `CN(CC1CCOCC1)c1nc(C(=O)Nc2ccccc2C(=O)Nc2cccnc2)cs1` [Ex 30] were, in that order, 0.57 nM and 90%.
Consider `COCCN(C)c1nc(C(=O)Nc2ccccc2C(=O)Nc2cccnc2)cs1` [Example 103], for which the concentration for half-maximal inhibition (IC50) at human trkA receptor amounted to 2.9 nM. The inhibition in vivo at 10 mg/kg in assay [1] is 98%. Besides, the “Rate in cange of effective bladder capacity” value (from here on “Rate in cange”) in assay [2] (oral dose 3 mg/kg, evaluation period 5-65 minutes after administration) is reported as 145%.
With `CO[C@H]1CCN(c2nc(C(=O)Nc3ccccc3C(=O)Nc3cccnc3)co2)C1` [Example 206], the IC50 on human trkA receptor turned out to be 6.8 nM. In addition, the “Rate in cange” value in assay [2] (setting [3]) is given as 159%.
With `Nc1cc(-c2nc(C(=O)Nc3ccccc3C(=O)Nc3cccnc3)co2)ccn1` [Example 220], the IC50 on human trkA receptor was found to be 4.2 nM.
Regarding `COCCN(C)c1nc(C(=O)Nc2ccccc2C(=O)NC2CCOCC2)co1` [Example 361], the IC50 on human trkA receptor was 35 nM. The inhibition in vivo at 10 mg/kg in assay [1] came to 78%. The “Rate in cange” value in assay [2] (setting [3]) was found to be 144%.
For the compound `COCCNC(=O)c1cc(CN2CCOCC2)ccc1NC(=O)c1csc(N2CCC(Oc3ncccn3)CC2)n1` [Example 564], the half-inhibitory concentration (IC50) on human trkA receptor is 3.1 nM. For the same compound, the Inhibitory rate in assay [1] was determined as 90%. Further, the “Rate in cange” value in assay [2] (setting [4]) amounted to 146%.
As for `O=C(Nc1ccncc1C(=O)NC1CCOCC1)c1csc(N2CCC(Oc3ncccn3)CC2)n1` [Example 602], the IC50 on human trkA receptor is 1.1 nM. Moreover, the “Rate in cange” value in assay [2] (setting [4]) came to 152%.
Turning to `O=C(Nc1ccccc1S(=O)(=O)C(F)F)c1csc(N2CCC(Oc3ncccn3)CC2)n1` [Example 611], at human trkA receptor, the half-inhibitory concentration (IC50) was 2.1 nM.
Turning to `CC(=O)c1cc(C2(C#N)CC2)ccc1NC(=O)c1csc(N2CCC(Oc3ncccn3)CC2)n1` [Example 628], the 50% inhibitory concentration (IC50) on human trkA receptor stood at 1.7 nM.
For the compound `CN(CC1CCOCC1)c1nc(C(=O)Nc2ccc(CN3CCOCC3)cc2C(=O)NC2CCOCC2)cs1` [Example 930], the IC50 on human trkA receptor was determined as 6.8 nM. The Inhibitory rate in assay [1] was determined as 86%. For the same compound, in assay [2] (setting [4]), the “Rate in cange” value was determined as 170%.
Take `COCCNC(=O)c1cc(CN2CCO[C@@H](C)C2)ccc1NC(=O)c1csc(N2CC[C@H](OC)C2)n1` [Example 1181, N-(2-[(2-methoxyethyl)carbamoyl]-4-{[(2S)-2-methylmorpholin-4-yl]methyl}phenyl)-2-[(3S)-3-methoxypyrrolidin-1-yl]-1,3-thiazole-4-carboxamide fumarate]: the IC50 at human trkA receptor turned out to be 12 nM. For the same compound, the inhibition in vivo at 10 mg/kg in assay [1] was determined as 81%.
For the compound `COCCNC(=O)c1cc(CN2CCOCC2(C)C)ccc1NC(=O)c1csc(N2CC[C@H](OC)C2)n1` [Example 1343], the IC50 at human trkA receptor stood at 9.9 nM. Besides, the inhibition in vivo at 10 mg/kg in assay [1] was 87%.
With `COCCNC(=O)c1cc(CN2CCOCC2)ccc1NC(=O)c1csc(N2CC(OC)C2)n1` [Example 1435], the IC50 on human trkA receptor was found to be 36 nM. In addition, in assay [1], the inhibition in vivo at 10 mg/kg was 71%.
Turning to `COC[C@@H](C)NC(=O)c1cc(CN2CCOCC2)ccc1NC(=O)c1csc(N2CC(OC)C2)n1` [Example 1439], the 50% inhibitory concentration (IC50) at human trkA receptor was 25 nM. For the same compound, the inhibition in vivo at 10 mg/kg in assay [1] was found to be 76%.
`CCOCc1ccc(NC(=O)c2csc(N3CC[C@H](OC)C3)n2)c(C(=O)NCCOC)c1` [Example 1449]: the concentration for half-maximal inhibition (IC50) at human trkA receptor stood at 8.8 nM. Moreover, the inhibition in vivo at 10 mg/kg in assay [1] is 76%.
The like results for `COCCNC(=O)c1cc(CN2CCOCC2)ccc1NC(=O)c1csc(N(C)CCOC)n1` [Example 1469] were, in that order, 9.8 nM and 90%.
The like results for `COCCNC(=O)c1cc(CN2CCOCC2)ccc1NC(=O)c1csc(N2CC[C@H](F)C2)n1` [Example 1470] were, in that order, 18 nM and 76%.

Values taken from patent US8304547B2, “Azolecarboxamide compound or salt thereof” (Astellas Pharma Inc., priority 2007, dated 2012).
